Data on 17 molecules can be found in US20250205362A1, “LIPID NANOPARTICLES” (NATIONAL UNIVERSITY CORPORATION HOKKAIDO UNIVERSITY, priority 2022, published 2025).

Where a chain is given by its changes, count along the chain named.

The nature of data set [1]: Encapsulation rate of lipid nanoparticles (Ribogreen). The data set is classed as physicochemical. The protocol: The encapsulation rate of the lipid nanoparticles was calculated by measuring the amount of encapsulated nucleic acid (the amount of ssODN in the case of RNP-ssODN) using an RNA intercalator Ribogreen (manufactured by Life Technologies).
Data set [2] can be described thus: Average particle diameter, PdI and zeta potential of lipid nanoparticles (dynamic light scattering). The data set is classed as physicochemical. The protocol: The mean particle diameter (number average value), ζ-mean particle diameter, and polydispersity index (PdI) of the lipid nanoparticles in PBS(−) (pH 7.4), as well as the zeta potential in 10 mM HEPES buffer (pH 7.4), were measured using an analyzing device, Zetasizer Nano ZS ZEN3600 (Malvern), which utilizes dynamic light scattering.

The subject of a further data set is TTR gene. As to the kind of experiment: Measurement of TTR-KO activity (serum TTR protein, ELISA). The data set is classed as in vivo, mouse. Conditions: for KO (%) 1st test / KO (%) 2nd test: TTR-KO activity in mice, TTR-RNP-ssODN-loaded LNP CL4H6/DSPC/cholesterol/PEG-DMG 50/10/40/3.5 mol%, sgTTR-G211 (TTR_3) or sgTTR-G269 (TTR_4); for serum TTR (5′ versus 3′ mismatch site): FIG. 8, sgTTR-G211, 7 days after administration. The protocol:
Lipid nanoparticles encapsulating Cas9/sgTTR-RNP (Cas9/sgTTR-RNP-loaded lipid nanoparticles) were intravenously injected to BALB/c mice (female, 4 weeks old) at the indicated doses. One week after intravenous injection, the mice were euthanized, blood was collected, and serum was isolated by centrifugation. The TTR protein concentration in the serum was determined using a commercially available ELISA kit (Prealbumin ELISA Kit (mouse), Aviva Systems Biology) according to the manufacturer's protocol. The serum TTR protein concentration of untreated mice was taken as 100%, and the relative value (%) of the serum TTR protein concentration of mice administered with each lipid nanoparticle was taken as the knockout activity (TTR-KO activity) of the lipid nanoparticle.
(In an ELISA, binding on a coated surface is turned into a signal by an enzyme label.)

[3] abbreviates: Fluc mRNA-loaded LNP, cationic lipid/DSPC/cholesterol/PEG-DMG 50/10/40/1.5 mol%, Table 5.
The mark [4] stands for this setting: Fluc mRNA-loaded LNP, comparison CL4F11-ζ-2, SM, ALC, MC3, Table 21.
Where [5] appears, read: TTR-RNP-ssODN-loaded LNP, comparison CL4F11-ζ-2, SM, ALC, MC3, Table 20.
Where [6] appears, read: Fluc mRNA-loaded LNP, CL4F11-e-3/neutral lipid (DSPC or DOPE)/cholesterol/PEG-DMG 50/10/40/0.75 mol%.
[7] abbreviates: TTR-RNP-ssODN-loaded LNP, sgTTR-G211, CL4H6/DSPC/cholesterol/PEG-DMG 50/10/40/3.5 mol%, Table 13.

“7-(4-(dipropylamino)butyl)-7-hydroxy-13-((3-propylhexanoyl)oxy)tridecyl 3-ethylheptanoic acid [CL4F6-b-3]” came in with an Encapsulation rate in data set [1] (setting [3]) of 88.9%. In data set [2] (setting [3]), this molecule returned a Number-average particle diameter of 89.3 nm, a PdI of 0.144, a ζ-average of 141.4 nm and a ζ-potential of −3.44 mV.

Take “7-(4-(dipropylamino)butyl)-7-hydroxytridecane-1,13-diylbis(3-butylheptanoate) [CL4F7-b-4]”: in data set [1] (setting [3]), the Encapsulation rate worked out at 77.5%. In data set [2] (setting [3]), the Number-average particle diameter is on record as 94.4 nm, the PdI was 0.267, the ζ-average amounted to 237.6 nm and the ζ-potential is −3.06 mV.

The molecule `CCCCCCCCC(CCCCCC)C(=O)OCCCCCCN(CCCCO)CCCCCCOC(=O)C(CCCCCC)CCCCCCCC` (stereo not drawn) [ALC, ALC-0315, reference compound] showed an Encapsulation rate in data set [1] (setting [4]) of 87.4%. In data set [1] (setting [5]), the Encapsulation rate came to 73.9%. In data set [2] (setting [4]), this molecule returned a Number-average particle diameter of 44.7 nm, a PdI of 0.085, a ζ-average of 61.9 nm and a ζ-potential of −1.75 mV. In data set [2] (setting [5]), this molecule came in with a Number-average particle diameter of 50.7 nm, a PdI of 0.138, a ζ-average of 78.8 nm and a ζ-potential of 0.51 mV.

In the data set with TTR gene (FIG. 5, TTR-RNP-ssODN-loaded LNP, mouse serum 7 days after administration), `CCCCCC(CCC)CCCCC(=O)OCCCCCCC(O)(CCCCCCOC(=O)CCCCC(CCC)CCCCC)CCCCN(CCC)CCC` (stereo not drawn) [CL4F11-e-3, 7-(4-(dipropylamino)butyl)-7-hydroxytridecane-1,13-diylbis(6-propylundecanoate)] registered a knockout of no less than 90%.

In the case of `CCCCC(CC)CCCCCC(=O)OCCCCCCC(O)(CCCCCCOC(=O)CCCCCC(CC)CCCC)CCCCN(CCC)CCC` (stereo not drawn) [CL4F11-ζ-2, 7-(4-(dipropylamino)butyl)-7-hydroxytridecane-1,13-diylbis(7-ethylundecanoate)], the “suppression of TTR gene expression” value in the data set with TTR gene (FIG. 15, 2.0 mg RNP/kg body weight, single administration, 7 days) was 98%.

Turning to `CCCCCCCCCCCCCCCCCC(=O)OC[C@H](COP(=O)([O-])OCC[N+](C)(C)C)OC(=O)CCCCCCCCCCCCCCCCC` [DSPC, 1,2-distearoyl-sn-glycero-3-phosphocholine], in data set [1] (setting [6]), the Encapsulation rate is listed as 85.3%. In data set [2] (setting [6]), this molecule had a Number-average particle diameter of 54.7 nm, a PdI of 0.275, a ζ-average of 104.7 nm and a ζ-potential of −2.41 mV.

In turn, `CCCCCCCCCCCOC(=O)CCCCCN(CCO)CCCCCCCC(=O)OC(CCCCCCCC)CCCCCCCC` [SM, SM-102, reference compound] registered an Encapsulation rate in data set [1] (setting [4]) of 88.4%. In data set [1] (setting [5]), this molecule displayed an Encapsulation rate of 78.3%. Besides, in data set [2] (setting [4]), the Number-average particle diameter was determined as 52.4 nm, the PdI came out at 0.131, the ζ-average is on record as 76.7 nm and the ζ-potential was determined as 0.24 mV. Further, in data set [2] (setting [5]), the Number-average particle diameter was found to be 64.6 nm, the PdI is 0.137, the ζ-average stood at 93.6 nm and the ζ-potential is reported as 1.43 mV.

B1: ssODN-TTR_3-100%: ssODN pairing with sgTTR-G211, 100% matched; SEQ ID NO 3 (nucleic acid)
DNA: AAAAAAAAAAAAAAAAAAAAAAAAAAAAAAAAAAAAAAAAAAAAAAAAAAAAAAAATGCTGTAGACGTGGCTGTAAAAAAAAAAAAAAAAAAAAAAAAAAAAAAAAAAAAAAAAAAAAAAAAAAAAAAAAAA
Take B1: in the data set with TTR gene, the “KO (%) 1st test” value came to 20.0% and the “KO (%) 2nd test” value is on record as 28.6%.

B2: ssODN-TTR_4-50%: ssODN pairing with sgTTR-G269, 50% matched; SEQ ID NO 12 (nucleic acid)
DNA: B1 DNA
On to B2, for which, in the data set on TTR gene, the “KO (%) 1st test” value is listed as 15.4% and the “KO (%) 2nd test” value is reported as 33.8%.

B3: ssODN-TTR_4-40%: ssODN pairing with sgTTR-G269, 40% matched; SEQ ID NO 13 (nucleic acid)
DNA: AAAAAAAAAAAAAAAAAAAAAAAAAAAAAAAAAAAAAAAAAAAAAAAAAAAAAAAAAAAAAATGTAGGAGATAAAAAAAAAAAAAAAAAAAAAAAAAAAAAAAAAAAAAAAAAAAAAAAAAAAAAAAAAAAA
For B3, in the data set on TTR gene, the “KO (%) 1st test” value came out at 19.9% and the “KO (%) 2nd test” value came to 29.6%. The “TTR-KO activity (ranking among ssODNs)” value in the data set with TTR gene (Table 10, CL4H6 LNP, per sgRNA) is recorded as “highest TTR-KO activity”.

B4: ssODN-TTR_3-30%: ssODN pairing with sgTTR-G211, 30% matched; SEQ ID NO 8 (nucleic acid)
DNA: B3 DNA with T65A, A66C, G68T, A69G, G70A, T72A, A75T, A76T
For B4, in the data set on TTR gene (FIG. 23, CL4H6 LNP prepared at 4° C., 2.0 mg RNP/kg, 7 days), the “serum TTR activity / gene knockout activity” value was “low serum TTR activity, exhibiting sufficient gene knockout activity”. In the data set on TTR gene, the “KO (%) 1st test” value was 17.4% and the “KO (%) 2nd test” value came out at 31.6%.

B5: ssODN-TTR_3-10° C.-5′: ssODN pairing with sgTTR-G211, mismatch on one side; SEQ ID NO 17 (nucleic acid)
DNA: B3 DNA with A57T, A58G, A59C, G64A, G67A, G68A, G70A, T72A, A75T, A76T
Take B5: in data set [1] (setting [7]), the Encapsulation rate came out at 59.0%. For the same molecule, the “serum TTR (5′ versus 3′ mismatch site)” value with TTR gene (CL4H6 LNP) is “about the same”. Further, in data set [2] (setting [7]), the Number-average particle diameter was determined as 82.4 nm, the PdI stood at 0.146, the ζ-average came to 141.0 nm and the ζ-potential turned out to be 3.98 mV.

B6: ssODN-TTR_4-30%: ssODN pairing with sgTTR-G269, 30% matched; SEQ ID NO 14 (nucleic acid)
DNA: B3 DNA with T63A, G70A
As for B6, in the data set with TTR gene, the “KO (%) 1st test” value was 16.4% and the “KO (%) 2nd test” value amounted to 14.4%.

B7: ssODN-TTR_3-60%: ssODN pairing with sgTTR-G211, 60% matched; SEQ ID NO 5 (nucleic acid)
DNA: B1 DNA with T57A, G58A, C59A, T60A, G73A, T74A, A75T, A76T
For the molecule B7, in the data set on TTR gene, the “KO (%) 1st test” value was found to be 26.4% and the “KO (%) 2nd test” value is on record as 35.4%.

B8: ssODN-TTR_4-60%: ssODN pairing with sgTTR-G269, 60% matched; SEQ ID NO 11 (nucleic acid)
DNA: B3 DNA with A61G, A62C, A71T, T72A
Take B8: in the data set with TTR gene, the “KO (%) 1st test” value is given as −0.9% and the “KO (%) 2nd test” value was 30.7%.

B9: ssODN-TTR_3-10° C.-3′: ssODN pairing with sgTTR-G211, mismatch on one side; SEQ ID NO 16 (nucleic acid)
DNA: B3 DNA with G64A, G67A, G68A, G70A, T72A, A73G, A74T
In the case of B9, the Encapsulation rate in data set [1] (setting [7]) was found to be 62.9%. Besides, in the data set with TTR gene (CL4H6 LNP), the “serum TTR (5′ versus 3′ mismatch site)” value is listed as “about the same”. For the same molecule, in data set [2] (setting [7]), the Number-average particle diameter was 95.3 nm, the PdI worked out at 0.269, the ζ-average was determined as 172.6 nm and the ζ-potential is listed as 5.20 mV.

B10: ssODN-TTR_4-80%: ssODN pairing with sgTTR-G269, 80% matched; SEQ ID NO 10 (nucleic acid)
DNA: B3 DNA with A59G, A60T, A61G, A62C, A71T, T72A, A73T, A74G
B10: the “KO (%) 2nd test” value with TTR gene amounted to 21.0%.
